18 substances from patent US20260242768A1, “ACETYL-COENZYME A CARBOXYLASE MUTANTS” (CIBUS US LLC, priority 2023, published 2026) can be followed below.

Test [1] concerns rice (Oryza sativa) plastidal ACCase. The test can be described thus: Clethodim tolerance of rice ACCase mutations, yeast complementation assay (Examples 1-3). Particulars: for clethodim tolerance: ACCase mutation tested with the herbicide clethodim; for clethodim tolerance of combined mutations compared with single mutation(s) or parent mutant: double/triple mutants vs single mutations; for effect on clethodim tolerance of the single D2078G mutation: mutation added to D2078G. It counts as cell-based. The text has this: Joachimiak M. et al Proc Natl Acad Sci U.S.A. 1997 Sep. 2; 94 (18): 9990-5 and WO/2013/074524 and WO/2013/074524 each describe methods to complement a yeast (Saccharomyces cerevisiae) strain lacking the native acc1 gene with either a wt or mutated form of a chimeric plastidal ACCase gene from a plant such as rice (Oryza sativa). Methods to introduce one or more mutations listed herein into the chimeric ACCase gene and subsequently complement the acc1 lacking yeast strain are well known by an individual skilled in the art. In the art assays are known for measuring tolerance of a mutated plant ACCase gene versus a herbicide that is a member of the aryloxyphenoxypropanoate, cyclohexanedione, and/or phenylpyrazoline families of herbicides such as clethodim, sethoxydim, fluazifop, haloxyfop, quizalofop, and pinoxaden (Joachimiak M. et al Proc Natl Acad Sci U.S.A. 1997 Sep. 2; 94 (18): 9990-5 and WO/2013/074524).
A library of random mutations in the rice (Oryza sativa) plastidal ACCase gene was generated and screened for clethodim tolerant clones using a yeast complementation assay.

A further test concerns O. sativa ACCase. Kind of test: Growth of Saccharomyces cerevisiae pseudodiploid acc1Δ strains carrying wild-type or mutant OsACCase plasmids, streaked onto plates with increasing concentrations of clethodim (Examples 5, 7, 10; Tables 8, 12). Also on record: key to growth, 0 mM clethodim / growth, 0.025 mM clethodim / growth, 0.1 mM clethodim / growth, 0.25 mM clethodim / growth, 0.5 mM clethodim / growth, 1 mM clethodim: ++ = Strong growth; + = Poor growth; − = No growth; key to relative growth phenotype, 0.5 mM clethodim / relative growth phenotype, 1 mM clethodim / relative growth phenotype, 2 mM clethodim / relative growth phenotype, highGal / relative growth phenotype, lowGal / relative growth phenotype, 0.05 mM clethodim / relative growth phenotype, 0.1 mM clethodim / relative growth phenotype, 0.25 mM clethodim: +++ high growth; ++ moderate growth; + low to negligible growth; (−) some cell debris, no growth; − no growth or cell debris. The class given is cell-based, Oryza sativa. The text has this:
Mutations at position N2097S and V2098A were combined to determine if point mutations at both positions gave increased resistance compared to either single point mutation. Each of these respective mutations (N2097S, V2098A and N2097S/V2098A) were generated by standard methods and introduced into a Saccharomyces cerevisiae pseudodiploid acc1Δ strain with a plasmid containing wild-type O. sativa ACCase gene. Once each of these mutations were introduced by recombination mediated mutagenesis, the OsACCase wild-type plasmid was removed, and mutation strains were confirmed by sequencing. The three strains, along with a series of controls including a WT strain (negative control), an I1781L mutant strain, and a D2078G mutant strain (positive control), were streaked onto plates with increasing concentrations of clethodim. […] These observations argue that N2097S is an enhancer of V2098A tolerance.
Edits at position S1784N and A1785G were combined to determine if point mutations at both of these two positions gave increased resistance compared to either single point mutation. Each of these respective mutations (S1784N, A1785G and S1784N/A1785G) were generated by standard methods and introduced into a Saccharomyces cerevisiae pseudodiploid acc1Δ strain with a plasmid containing wild-type O. sativa ACCase gene. Once each of these mutations were introduced by recombination mediated mutagenesis, the OsACCase wild-type plasmid was removed, and mutation strains were confirmed by sequencing. The three strains, along with a series of controls including a WT strain (negative control), an I1781L mutant strain, a D2078G mutant strain (positive control), and a V2075L mutant strain were streaked onto plates with increasing concentrations of clethodim.
Each of these respective mutations (D2078G, P2083T, D2078G/P2083T) were generated by standard methods and introduced into a Saccharomyces cerevisiae pseudodiploid acc14 strain with a plasmid containing the wild-type O. sativa ACCase gene. Once plasmids bearing each of these mutations, introduced using recombination-mediated mutagenesis, the OsACCase wild-type plasmid was removed, and strains bearing each mutant plasmid were confirmed by sequencing. The three strains, along with a series of controls including a wild-type strain (negative control), an I1781L mutant strain (medium control), and a pre-existing D2078G mutant strain (positive control) were streaked onto plates with increasing concentrations of clethodim.

Setting [2] is: plates with increasing clethodim, 0.01% galactose.

“D1681E: mutated ACCase, numbering per SEQ ID NO: 2”: in test [1], the clethodim tolerance result is listed as “measurable clethodim tolerance”.
N2097S/V2098A: double mutant ACCase: in the test on O. sativa ACCase (setting [2]), the “tolerance/resistance of double mutant compared with single mutation(s)” value was “notably increased compared to the V2098A change alone”.
Take L1543F-D1681E: double mutant ACCase: the “clethodim tolerance of combined mutations compared with single mutation(s) or parent mutant” value in test [1] was “increased clethodim tolerance compared to any one mutation alone”.
The same measure, in the same setting: in the case of “R1672I/M1975T/D2078G: triple mutant ACCase clone” it was “increased clethodim tolerance compared to the single D2078G mutation”.
As to “P2083T: mutated ACCase, numbering per SEQ ID NO: 2”, the “growth, 0 mM clethodim” value in the test with O. sativa ACCase (Table 12, plate with 0 mM clethodim, galactose 0.01%) is on record as “++”. For the same substance, the “growth, 0.025 mM clethodim” value in the test with O. sativa ACCase (Table 12, plate with 0.025 mM clethodim, galactose 0.01%) is listed as “−”. In the test with O. sativa ACCase (Table 12, plate with 0.1 mM clethodim, galactose 0.01%), the “growth, 0.1 mM clethodim” value was “−”. For the same substance, the “growth, 0.25 mM clethodim” value in the test with O. sativa ACCase (Table 12, plate with 0.25 mM clethodim, galactose 0.01%) is listed as “−”. The “growth, 0.5 mM clethodim” value with O. sativa ACCase (Table 12, plate with 0.5 mM clethodim, galactose 0.01%) is on record as “−”. For the same substance, the “growth, 1 mM clethodim” value in the test with O. sativa ACCase (Table 12, plate with 1 mM clethodim, galactose 0.01%) was “−”. Moreover, in the test on O. sativa ACCase (setting [2]), the “growth on clethodim plates (in words)” value is recorded as “unable to grow on all concentrations of clethodim tested”.
With D2078G/N2097S: double mutant ACCase, the “clethodim tolerance of combined mutations compared with single mutation(s) or parent mutant” value in test [1] is “either less, or no more, tolerant than the single D2078G, V2075L and V2098A mutations”.
In the case of “S1784G: mutated ACCase, numbering per SEQ ID NO: 2”, the clethodim tolerance result in test [1] is recorded as “measurable clethodim tolerance”.
As for L1543F-D1681G: double mutant ACCase, in test [1], the “clethodim tolerance of combined mutations compared with single mutation(s) or parent mutant” value was “increased clethodim tolerance compared to any one mutation alone”.
The same measure, in the same setting: in the case of R1672I-D2078G: double mutant ACCase it was “tolerance that is similar to the corresponding original triple mutants”.
Same read-out and setting: next, “S1784N plus L1818H: double mutant ACCase”: “improves tolerance in comparison to either single mutation”.
For “L1818H: mutated ACCase, numbering per SEQ ID NO: 2”, in test [1], the clethodim tolerance entry was “measurable clethodim tolerance”.
On to “L1543F: mutated ACCase, numbering per SEQ ID NO: 2”, for which the clethodim tolerance entry in test [1] is “measurable clethodim tolerance”.
In the case of “D1681G: mutated ACCase, numbering per SEQ ID NO: 2”, the clethodim tolerance result in test [1] is “measurable clethodim tolerance”.
Consider L1543V-D1681G: double mutant ACCase, for which the “clethodim tolerance of combined mutations compared with single mutation(s) or parent mutant” value in test [1] is on record as “increased clethodim tolerance compared to any one mutation alone”.
Same read-out and setting: in the case of V2075L/N2097D: double mutant ACCase it was “either less, or no more, tolerant than the single D2078G, V2075L and V2098A mutations”.
For the substance “R1672I: mutated ACCase, numbering per SEQ ID NO: 2”, in test [1], the clethodim tolerance entry is “neither R1672I nor M1974T alone provide measurable tolerance” and the “effect on clethodim tolerance of the single D2078G mutation” value is “increase tolerance of the single D2078G mutation”.
For “M1974T: mutated ACCase, numbering per SEQ ID NO: 2” the same measures were “neither R1672I nor M1974T alone provide measurable tolerance” and “increase tolerance of the single D2078G mutation”.
In the case of S1784N/A1785G: double mutant ACCase, the “clethodim concentrations on which the strain grew” value in the test with O. sativa ACCase (Example 7, plates with increasing clethodim, 0.01% galactose) is listed as “up to 1 mM”. Besides, the “relative growth phenotype, 0.05 mM clethodim” value in the test on O. sativa ACCase (plate with 0.05 mM clethodim, galactose 0.01%) is “+++”. For the same substance, the “relative growth phenotype, 0.1 mM clethodim” value with O. sativa ACCase (plate with 0.1 mM clethodim, galactose 0.01%) is listed as “+++”. In the test with O. sativa ACCase (plate with 0.25 mM clethodim, galactose 0.01%), the “relative growth phenotype, 0.25 mM clethodim” value is “+++”. Moreover, the “relative growth phenotype, 0.5 mM clethodim” value in the test with O. sativa ACCase (plate with 0.5 mM clethodim, galactose 0.01%) is recorded as “+++”. Moreover, the “relative growth phenotype, 1 mM clethodim” value with O. sativa ACCase (plate with 1 mM clethodim, galactose 0.01%) is listed as “+”. Moreover, the “relative growth phenotype, 2 mM clethodim” value in the test with O. sativa ACCase (plate with 2 mM clethodim, galactose 0.01%) is “(−)”. Also, the “tolerance/resistance of double mutant compared with single mutation(s)” value in the test on O. sativa ACCase (setting [2]) is reported as “superior in terms of resistance to either individual mutation”. Moreover, in the test with O. sativa ACCase (yeast acc1Δ strain with OsACCase plasmid, high galactose plate, no clethodim), the “relative growth phenotype, highGal” value is listed as “+++”. For the same substance, in the test on O. sativa ACCase (yeast acc1Δ strain with OsACCase plasmid, low galactose plate, no clethodim), the “relative growth phenotype, lowGal” value is given as “+++”.
